From patent US20220386582A1, “METHOD AND DEVICE TO TRAP ACARIDS” (DOMOBIOS, priority 2015, published 2022)

Legend:
Type in all cases: in vivo
[1] = tested on: Dermatophagoides pteronyssinus; test: Mini-mattress trap: attraction capabilities of attracting solutions sprayed on felt
Protocol: (§1) Rearing: The species studied were Dermatophagoides pteronyssinus and Dermatophagoides farinae, house dust mite common in mattresses in Eurasia. Mites are reared in Petri dishes and fed with human skin flakes (skin and whiskers obtained by cleaning electric […]). All mites were reared together under defined conditions (20° C. and 75% relative humidity). The experiments took place in a room kept at 20° C. and 40% relative humidity. Aim of the experiments: The aim was to test the trap in condition similar to the conditions that will be met by the user of the trap. Materials and methods: The mattresses were built at a smaller scale (15× reduction) than usual mattresses. These mini-mattresses are made in polyurethane and covered by a cover in cotton. They were infested with mites since at least 3 months. The fabric was a felt of 20 mg/cm^2 and is a rectangle of 10 cm×20 cm. It was placed on the mini-mattress. Then the attracting solution was sprayed on the fabric with a spray bottle. The fabric was left in place on the mattress during one hour. During this time, the mites moved in the felt. It is very difficult to count directly the mites hidden in the mattress and in the fabric. Therefore, we used a Berlèse funnel which is a device that is usually used to separate insects from litter. Here, it was used to separate the mites from their mattress or from the fabric. The Berlèse funnel uses a light bulb to heat and dry the mattress, thus driving the mites downwards through a screen and into a collecting jar containing some food and some water. […] They are attracted by a source of moisture and the smell of food. The mattress or blanket were therefore placed in the funnel (FIG. 2). The mites went downwards in the direction of the jar, then in the jar. The harvest of the jar containing the mites took place after one day. Mites had then 24 hours to migrate to the jar collector. As a substantial proportion of the population is immobile (moulting mites), trapping is less efficient than it would be otherwise and estimate of population size that is trapped are likely to be biased. To avoid this bias and make a proper assessment of the populations in infested mattresses, mattresses were carefully brushed with a soft brush at the end of the manipulation meaning that immobile mites and eggs also fall into the funnel. Fabric was carefully brushed too. The Berlèze funnel was rinsed with ethanol. Thus, mites still on the inner wall of the funnel were driven by ethanol in the jar collector. At the end of the experiment, the jar contained: the food used as attracting to mites, a small amount of water also used for attracting, mites, and ethanol. The jar was emptied into a Petri dish and we counted mites under binocular. Counting of mites was made under binocular microscope (magnification 10×). The set-up is illuminated with a cold lamp (KL 1500 LCD, Schott ●). The felt was sprayed with different attracting compositions: a solution of lavandulol, a solution of Tween 60, a combination of lavandulol and Tween 60, a solution of citral, and the attracting solution commercialized under the brand name Acar'up were compared at various dilutions.

[2] = tested on: Dermatophagoides farinae; test: as above
Protocol: as §1

[3] = tested on: mites; test: Short (5 minutes) exposure without drying time on consecutive days (FIG. 9); details: lavandulol diluted at 10^−6, 5 minutes exposure, no drying time; first day of treatment
Protocol: FIG. 9 is a graph representing the attracting efficiency of a 5 minutes time exposure of a composition comprising lavandulol diluted at 10^−6. The graph represents the percentage of mites trapped by a fabric sprayed with compositions, as a function of the days of exposure to the attracting composition. Similar experiments were performed to determine attractiveness of mites when an attracting solution comprising one or more attractive agents is exposed during a short time without drying time.

[4] = tested on: Tyrophagus putrescentiae; test: Toxicity, indirect contact (inhalation, 24 hours)
Protocol: (§2) FIG. 10 is a set of graphs showing the percentage of dead mites after 24 hours of inhalation of lavandulol at different concentrations (0.18 μL, 3 μL or 8 μL of pure solution) or water (Ctrl). Four species of mites were tested: Dermatophagoides pteronyssinus (DP), Dermatophagoides farinae (DF), Tyrophagus putrescentiae (TP) and Acarus siro (AS).
(§3) The species studied were two species of dust common in mattresses in Eurasia (Dermatophagoides pteronyssinus and Dermatophagoides farinae), and two species of stored food mites common in Eurasia (Tyrophagus putrescentiae and Acarus siro). These four species were reared under defined conditions (20° C. and 75% relative humidity). The house dust mites were fed with human flakes (skin and whiskers obtained by cleaning electric shavers) and stored food mites were fed with fish food. The experiments were performed at 20° C. and 40% relative humidity.
(§4) For each of the four species, a group of a mites (10<n<25) was placed in a Petri dish (diameter 5.5 cm). This dish was then recovered by a filter paper that enabled gas-exchange and placed into another dish (diameter 9 cm), in which was placed a piece of paper filter (5×1 cm) impregnated with lavandulol at various concentration (0.18 μL, 3 μL, or 8 μL of pure solution, corresponding respectively to 0.15 mg, 2.5 mg or 6.67 mg of lavandulol), or with water. The bigger of the two dishes was then covered.
(§5) After 24 hours, the number of dead mites were counted. The death of a mite was determined by reaction to a stimulation with a needle: lack of reaction and the persistence of immobility indicated death. This experiment was repeated three times with the four species.
(§6) Observations and counting of mites were made under binocular microscope (magnification 10×). The set-up is illuminated with a cold lamp (KL 1500 LCD, Schott ●), the lighting is symmetric and the light intensity was 50Klux. The experimental conditions were controlled in the room (T° C.: 19-22° C. and RH 40%).

[5] = tested on: Dermatophagoides pteronyssinus; test: Toxicity, indirect contact (inhalation, 24 hours)
Protocol: as §2, §3, §4, §5, §6

[6] = tested on: Dermatophagoides farinae; test: Toxicity, indirect contact (inhalation, 24 hours)
Protocol: as §2, §3, §4, §5, §6

[7] = tested on: Acarus siro; test: Toxicity, indirect contact (inhalation, 24 hours)
Protocol: as §2, §3, §4, §5, §6

[8] = Dilution 10^−6 (* mixture of a lavandulol solution at 10^−6 and a Tween 60 solution at 10^−6)
[9] = pure lavandulol volumes of 3 μL and 8 μL

## C=C(C)C(CO)CC=C(C)C (stereo not shown) [Lavandulol, 5-Methyl-2-prop-1-en-2-ylhex-4-en-1-ol]
[1]; Dilution 10^−1
  attraction capabilities, percentage of mites: 34%
[1]; Dilution 10^−3
  attraction capabilities, percentage of mites: 56%
[1]; Dilution 10^−5
  attraction capabilities, percentage of mites: 91%
[1]; [8]
  attraction capabilities, percentage of mites: 64%
[1]; Dilution 10^−8
  attraction capabilities, percentage of mites: 46%
[1]; Dilution 10^−9
  attraction capabilities, percentage of mites: 55%
[1]; Dilution Undiluted
  attraction capabilities, percentage of mites: 8%
[2]; Dilution 10^−3
  attraction capabilities, percentage of mites: 57%
[2]; Dilution 10^−5
  attraction capabilities, percentage of mites: 90%
[2]; [8]
  attraction capabilities, percentage of mites: 71%
[2]; Dilution 10^−8
  attraction capabilities, percentage of mites: 37%
[2]; Dilution 10^−9
  attraction capabilities, percentage of mites: 28%
[2]; Dilution Undiluted
  attraction capabilities, percentage of mites: 6%
[3]
  percentage of mites attracted in the sheet: very high
[4]; lavandulol volume of 0.18 μL
  mortality of mites by inhalation: not lethal
[4]; [9]
  mortality of mites by inhalation: high mortality
[5]; lavandulol volume of 0.18 μL
  mortality of mites by inhalation: not lethal
[5]; [9]
  mortality of mites by inhalation: high mortality
[6]; lavandulol volume of 0.18 μL
  mortality of mites by inhalation: not lethal
[6]; [9]
  mortality of mites by inhalation: high mortality
[7]; lavandulol volume of 0.18 μL
  mortality of mites by inhalation: not lethal
[7]; [9]
  mortality of mites by inhalation: high mortality
